Test results: patent US20250275993A1, “GLYCOSYLATION INHIBITORS AS THERAPEUTICS FOR STROKE” (The Regents of the University of California, priority 2022, published 2025)

Legend:
[1] = tested on: N-linked glycans from BCECs; assay: N-glycan analysis of BCECs; format: cell-based, bovine
Protocol: As soon as BCECs reached about 80% confluency, they were washed twice with phosphate buffered saline (PBS, Sigma) and harvested by scraping. The cells were pelleted by centrifugation at 300 g for 3 mins and washed once with cold PBS. Cells were homogenized and total protein was measured. All subsequent analysis was based on known protein amount.
N-linked glycans were removed from glycoprotein samples using PNGase-F kit (New England BioLabs, P0705S). Briefly, 300 μg of protein sample was reconstituted in 180 μl UltraPure water. 20 μl of 10× denaturing buffer was added and boiled using 100° C. water bath for 14 mins. Samples were cooled down to room temperature and centrifuged at 2700 g for 1 min. Subsequently, 50 μl 10×NP-40 was added and samples were kept at room temperature for 30 mins with vortexing at 5 min interval, followed by adding 25 μL of 10× reaction buffer and mixing thoroughly. 5 μl PNGaseF (2500 U) was then added to the samples and mixed gently. Samples were incubated at 37° C. for 16 hrs. Released N-glycans were purified using solid phase extraction method. […] The data was collected using the Dionex ICS-3000 HPLC system with Ultimate 3000 fluorescence detector (Dionex) set at Acx 330 nm at Atm 420 nm with sensitivity 7. […]

α-glucosidase = α-glucosidase activity assay; format: biochemical, Saccharomyces cerevisiae; details: up to 2 mM
Protocol: a-mannosidase activity was measured using substrate p-nitrophenyl α-mannopyranoside (1 mM). Enzyme from Jack Bean (M7257) (final concentration of 0.077 U) was incubated at 37° C. in a final volume of 50 μl of 50 mM potassium phosphate buffer, pH 7.5. α-glucosidase was assayed with substrate p-nitrophenyl a-glucoside (7 mM). Enzyme from Saccharomyces cerevisiae-type 1 (Sigma, G5003) (final concentration of 0.1 U) was incubated at 37° C. in a final volume of 50 μl of PBS, pH 7.5. β-Glucosidase was assayed with substrate 4-nitrophenyl β-D-glucopyranoside (Roche). Enzyme from almond (Sigma, G0395) (final concentration of 0.002 U) was incubated at 37° C. in a final volume of 50 μl of PBS, pH 7.5 […]. The incubation was stopped by addition of an equal volume of acid-based stop solution (R&D systems, 895032). Enzymatic activity was measured at 405 nm. α-glucosidase from Saccharomyces cerevisiae type I (G5003) with p-nitrophenyl α-D-glucopyranoside (Sigma, N1377) as the substrate.

brain infarction = assay: Middle cerebral artery occlusion (MCAO) stroke model; format: in vivo, mouse
NIH3T3 fibroblasts = assay: NIH3T3 proliferation assay; format: cell-based, mouse; details: alone or in combination with growth factors
Protocol: Proliferation assays with fibroblasts were done in low-glucose DMEM containing 1% FBS, with or without 10 ng/ml bFGF, or 100 ng/ml human EGF and the assay was ended at day 3. ARPE-19 cells were gently lifted with 0.025% trypsin and plated in RtEGM media (Clonetics) containing 2% FBS, L-glutamine, human bFGF and GA-1000. Once cells were attached to plates, serum-free RtEGM media was used to maintain the cultures. For proliferation assays, 1500 human RPE cells were plated into 96-well plates in low-glucose DMEM containing 1% FBS. A673, U87MG, Calu6 and AML12 cells were grown until confluent and were then harvested and re-suspended in appropriate assay media. For proliferation assays, cells were plated at the density of 1000-2000 cells/well in low-glucose DMEM containing 5% FBS or otherwise stated. Bovine pituitary cells (pituitary folliculostellate cells) were isolated as previously described. For proliferation assays with human epidermal keratinocytes, human DMVECs and human dermal fibroblast cells, 1000 cells/well were plated in low-glucose DMEM containing 1% FBS with or without various growth factors. The assay was ended at day 3 for bovine pituitary cells and at day 4 for all the other cell types. […] Four days later, tumor cell growth was measured by the MTS assay (Promega, Madison, WI), a colorimetric assay that measures metabolic activity of viable cells. […]

N[C@H](C=O)[C@@H](O)[C@H](O)[C@H](O)CO [ManN, 2-Amino-2-deoxy-D-mannose]
Man-5 and Man-7 content ([1]; 40 μM ManN): significant early phase accumulation
Man-6, Man-8 and Man-9 in total oligomannose N-glycan content ([1]; 40 μM ManN vs untreated control): significant time-dependent reduction
effect on α-glucosidase (α-glucosidase): No effect
histopathological alterations (H&E), Day 4 (brain infarction; 40 mg ManN Day -1, 1, 3): ameliorates histopathological alterations
vascular density (CD31) in cerebral cortex affected by infarct, Day 6 (brain infarction; 40 mg ManN Day -1, 1, 3, 5, p<0.001): significantly increased vascular density
infarction area, Day 4 MRI, first and second experiment (brain infarction; 40 mg ManN oral gavage Day -1 and every 48 hours, 4 animals per group): markedly smaller infarction area
overall infarction area, combined analysis (brain infarction; 4 days post-acute ischemic event, FIG. 12D): statistically significant effect of ManN treatment in reducing overall infarction area
TTC staining of coronal slices at Day 4 (brain infarction; FIG. 13C): lack of large regions of white staining
CNS infarct volume at Day 4 (MRI), additional animals (brain infarction; p<0.001 vs vehicle, FIG. 13B): significantly reduced CNS infarct volume
infarct area on Day 2 and Day 4 (MRI images) (brain infarction; vs vehicle (H2O), FIG. 13A): Reduction in infarct area is noticeable
proliferation of NIH3T3 cells (NIH3T3 fibroblasts): no increases in proliferation
